Measured values: ChEMBL document CHEMBL1201862, “PubChem BioAssay data set” (2004)
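Protocol summary: plate cells (96-well), add compound at 5 concentrations, incubate 48 h, interpolate endpoints linearly. Abbreviation: GI50, concentration required for 50% inhibition of growth.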 Active and inactive are the calls of the source. No stated cut-off is given here; in the data, active = GI50 up to about 1.1 µM and inactive = higher.

Key:
Test in all cases: NCI anticancer screen, dose series, 48 h
[1] = system: BT-549
[2] = system: CAKI-1
[3] = system: COLO 205
[4] = system: DU-145
[5] = system: HCC 2998
[6] = system: HCT-15
[7] = system: IGROV-1
[8] = system: K562
[9] = system: MDA-MB-231
[10] = system: MDA-N
[11] = system: NCI-H23
[12] = system: OVCAR-8
[13] = system: SK-MEL-28
[14] = system: SK-MEL-2
[15] = system: SR
[16] = system: SW-620
[17] = system: TK-10
[18] = system: EKVX
[19] = system: HOP-62
[20] = system: MOLT-4

| Structure (SMILES) | GI50 [1] | GI50 [2] | GI50 [3] | GI50 [4] | GI50 [5] | GI50 [6] [µM] | GI50 [7] | GI50 [8] | GI50 [9] | GI50 [10] | GI50 [11] | GI50 [12] | GI50 [13] | GI50 [14] | GI50 [15] | GI50 [16] | GI50 [17] | GI50 [18] | GI50 [19] | GI50 [20] |
| --- | --- | --- | --- | --- | --- | --- | --- | --- | --- | --- | --- | --- | --- | --- | --- | --- | --- | --- | --- | --- |
| O=C(NCCCN(CCCCN(CCCNC(=O)c1cc(S(=O)(=O)O)cc(O)c1O)C(=O)c1cc(S(=O)(=O)O)cc(O)c1O)C(=O)c1cc(S(=O)(=O)O)cc(O)c1O)c1cc(S(=O)(=O)O)cc(O)c1O | > 100 µM (inactive) | > 100 µM (inactive) | > 100 µM (inactive) | > 100 µM (inactive) | > 100 µM (inactive) | > 100 | > 100 µM (inactive) | > 100 µM (inactive) | > 100 µM (inactive) | > 100 µM (inactive) | > 100 µM (inactive) | > 100 µM (inactive) | > 100 µM (inactive) | > 100 µM (inactive) | 60.4 µM (inactive) | > 100 µM (inactive) | > 100 µM (inactive) |  |  |  |
| Cn1c(=O)c2nc(CS(=O)(=O)Cc3nc4c(=O)n(C)c(=O)n(C)c4[nH]3)[nH]c2n(C)c1=O | > 100 µM (inactive) | > 100 µM (inactive) | > 100 µM (inactive) | > 100 µM (inactive) |  | > 100 | > 100 µM (inactive) | > 100 µM (inactive) | 40.6 µM (inactive) | > 100 µM (inactive) | > 100 µM (inactive) | > 100 µM (inactive) | > 100 µM (inactive) | > 100 µM (inactive) | > 100 µM (inactive) | > 100 µM (inactive) | > 100 µM (inactive) | > 100 µM (inactive) | > 100 µM (inactive) | > 100 µM (inactive) |
| NC(=O)C1CCCN1Cc1ccc2c(c1)OCO2 (stereo unspecified) | > 100 µM (inactive) | > 100 µM (inactive) | > 100 µM (inactive) | > 100 µM (inactive) |  | > 100 | > 100 µM (inactive) | > 100 µM (inactive) | > 100 µM (inactive) | > 100 µM (inactive) | > 100 µM (inactive) | > 100 µM (inactive) | > 100 µM (inactive) | > 100 µM (inactive) | > 100 µM (inactive) | > 100 µM (inactive) | > 100 µM (inactive) | > 100 µM (inactive) | > 100 µM (inactive) | > 100 µM (inactive) |
| COC(=O)/C=C/CCC#Cc1ccccc1C#CCC/C=C/C(=O)OC | 7.55 µM (inactive) | 2.88 µM (inactive) | 5.48 µM (inactive) | 32 µM (inactive) | 50.1 µM (inactive) | 3.98 | 4.88 µM (inactive) | 1.76 µM (inactive) | 20.1 µM (inactive) | 4.47 µM (inactive) | 4.78 µM (inactive) | 6.46 µM (inactive) | 47.5 µM (inactive) |  | 3.43 µM (inactive) | 4.89 µM (inactive) | 30.7 µM (inactive) | 36.1 µM (inactive) | 24.2 µM (inactive) | 3.01 µM (inactive) |
| O=C(CC(C(=O)c1cccs1)c1ccsc1)c1cccs1 (stereo unspecified) | 81.8 µM (inactive) | > 100 µM (inactive) | 75.2 µM (inactive) | > 100 µM (inactive) | 83.9 µM (inactive) | 71.3 | > 100 µM (inactive) | 37.8 µM (inactive) | > 100 µM (inactive) | 25.8 µM (inactive) | > 100 µM (inactive) | > 100 µM (inactive) | 81.5 µM (inactive) |  | 36 µM (inactive) | 81.7 µM (inactive) | > 100 µM (inactive) | 28.8 µM (inactive) | > 100 µM (inactive) | 46.7 µM (inactive) |
| C1=C(c2ccccc2)NC2=N[C@H]3CCCC[C@@H]3N2C1c1ccccc1 (stereo partly specified) | 11.4 µM (inactive) | 16.1 µM (inactive) | 11 µM (inactive) | 16.1 µM (inactive) | 14.4 µM (inactive) | 11.4 | 13 µM (inactive) | 5.15 µM (inactive) | 15.8 µM (inactive) | 15.5 µM (inactive) | 12.7 µM (inactive) | 13.6 µM (inactive) | 14.3 µM (inactive) | 17.8 µM (inactive) | 14.2 µM (inactive) | 13.2 µM (inactive) | 10.4 µM (inactive) | 14.4 µM (inactive) |  | 7.74 µM (inactive) |
| CCCC(=O)Nc1cc([N+](=O)[O-])c([N+](=O)[O-])cc1OC | 17.3 µM (inactive) | 16 µM (inactive) | 15.5 µM (inactive) | 17.8 µM (inactive) |  | 8.87 | 20.9 µM (inactive) | 17.5 µM (inactive) | 19.1 µM (inactive) | 15.1 µM (inactive) | 18.2 µM (inactive) | 16.3 µM (inactive) | 17 µM (inactive) | 16.5 µM (inactive) | 5.18 µM (inactive) | 22.4 µM (inactive) | 17.2 µM (inactive) | 17.7 µM (inactive) | 12.6 µM (inactive) | > 10 µM (inactive) |
| COc1ccc(CC(=O)N2CCC3(C)CC(=O)CC=C23)cc1OC (stereo unspecified) | > 100 µM (inactive) | > 100 µM (inactive) | > 100 µM (inactive) | > 100 µM (inactive) |  | > 100 | > 100 µM (inactive) | > 100 µM (inactive) | > 100 µM (inactive) | > 100 µM (inactive) | > 100 µM (inactive) | > 100 µM (inactive) | > 100 µM (inactive) | > 100 µM (inactive) | > 100 µM (inactive) | > 100 µM (inactive) | < 0.01 µM (active) | > 100 µM (inactive) | 93.8 µM (inactive) | > 100 µM (inactive) |
| COc1ccc(C2=NN=C3C(c4ccccc4)=Nc4ccccc4N3C2)cc1 | 40 µM (inactive) |  | 15.3 µM (inactive) | 8.18 µM (inactive) | 46.8 µM (inactive) | 16.9 | 29.4 µM (inactive) | 30.8 µM (inactive) | 27.5 µM (inactive) | 49.1 µM (inactive) | 21 µM (inactive) |  | 12 µM (inactive) | 22.6 µM (inactive) | 3.04 µM (inactive) | 14.9 µM (inactive) | 23.5 µM (inactive) | > 100 µM (inactive) | 14.8 µM (inactive) | 7.05 µM (inactive) |
| O=c1[nH]c(Nc2nc3ccccc3[nH]2)nc(O)c1-c1ccccc1 | > 100 µM (inactive) | > 100 µM (inactive) | > 100 µM (inactive) | > 100 µM (inactive) | > 100 µM (inactive) | > 100 | > 100 µM (inactive) | > 100 µM (inactive) | > 100 µM (inactive) | > 100 µM (inactive) | > 100 µM (inactive) | > 100 µM (inactive) | > 100 µM (inactive) | > 100 µM (inactive) | > 100 µM (inactive) | > 100 µM (inactive) | > 100 µM (inactive) |  | > 100 µM (inactive) |  |
| C/C(=N\NC(N)=S)c1sc(-n2nc(-c3ccccc3)cc2-c2ccccc2)nc1C | > 100 µM (inactive) | > 100 µM (inactive) | > 100 µM (inactive) | > 100 µM (inactive) | > 100 µM (inactive) | 94.4 | 16 µM (inactive) |  | 43.3 µM (inactive) | > 100 µM (inactive) | > 100 µM (inactive) | > 100 µM (inactive) | > 100 µM (inactive) | > 100 µM (inactive) | 67.3 µM (inactive) | > 100 µM (inactive) | > 100 µM (inactive) | 50.1 µM (inactive) | > 100 µM (inactive) | 27.9 µM (inactive) |
| O=C(O)c1ccccc1/C=N\N=C1NCCN1 | 49.9 µM (inactive) | > 100 µM (inactive) | > 100 µM (inactive) | > 100 µM (inactive) | > 100 µM (inactive) | > 100 | > 100 µM (inactive) | > 100 µM (inactive) | > 100 µM (inactive) | > 100 µM (inactive) | > 100 µM (inactive) | > 100 µM (inactive) |  | > 100 µM (inactive) | > 100 µM (inactive) | > 100 µM (inactive) | > 100 µM (inactive) | > 100 µM (inactive) | > 100 µM (inactive) | > 100 µM (inactive) |
| O=C(c1cccnc1)N1N=C(c2ccccc2)CC1(O)c1cc(F)c(Cl)cc1Cl (stereo unspecified) | 20.3 µM (inactive) | 33.3 µM (inactive) | 14.1 µM (inactive) | 32.1 µM (inactive) |  | 26.2 | 10.4 µM (inactive) | 21.4 µM (inactive) | 15.7 µM (inactive) | 28.6 µM (inactive) | 27 µM (inactive) | 25.5 µM (inactive) | 25.1 µM (inactive) | 19.4 µM (inactive) | 22.5 µM (inactive) | 28.3 µM (inactive) | 41 µM (inactive) | 21.8 µM (inactive) | 16.1 µM (inactive) | 14.5 µM (inactive) |
| Cc1cc2c(cc1Cl)SC(NNC(=O)c1ccncc1)=NS2(=O)=O | > 10 µM (inactive) | > 10 µM (inactive) | > 10 µM (inactive) | > 10 µM (inactive) | > 10 µM (inactive) | > 10 | > 10 µM (inactive) | > 10 µM (inactive) | > 10 µM (inactive) | > 10 µM (inactive) | > 10 µM (inactive) | > 10 µM (inactive) | > 10 µM (inactive) | > 10 µM (inactive) |  | > 10 µM (inactive) | > 10 µM (inactive) | > 10 µM (inactive) | > 10 µM (inactive) | > 10 µM (inactive) |
| C=[N+](CNC(=O)CNC(=O)C(Cc1ccc([N+](=O)[O-])cc1)NC(=O)OC(C)(C)C)C(=O)CNC(=O)C(Cc1ccc([N+](=O)[O-])cc1)NC(=O)OC(C)(C)C (stereo unspecified) | 28.1 µM (inactive) | > 100 µM (inactive) | 58.2 µM (inactive) | > 100 µM (inactive) | 38.9 µM (inactive) | > 100 | 42.4 µM (inactive) | 19 µM (inactive) | 25.7 µM (inactive) | > 10 µM (inactive) | 68.1 µM (inactive) | 52.7 µM (inactive) | 30.1 µM (inactive) |  | 24 µM (inactive) | 41.6 µM (inactive) | > 100 µM (inactive) | > 100 µM (inactive) | > 100 µM (inactive) | 17 µM (inactive) |
